Results published in patent US8697407B2, “Compositions and methods for inhibiting MMSET” (The Regents of The University of Michigan, priority 2010, dated 2014).
“Also recorded” adds a separate entry of the source. Read-outs that look alike come from different tables or passages of the source.

Columns and labels:
DU145 cells [1] = assay: WST-1 cell viability assay; type: cell-based
Description: In order to test the activity of MMSET inhibitors on cell viability, a WST-1 cell viability assay (Roche) was performed. The aggressive prostate cell line DU145 was treated with different doses of small molecules dissolved in DMSO for 96 hours before performing the WST-1 assay according to manufacturer's protocol. Each experiment was performed 8 times and absorbance was measured at 450 nm.

xenograft tumors = assay: Xenograft tumors; conditions: in vivo
DU145 cells [2] = assay: Basement membrane matrix invasion assay; type: cell-based; conditions: 48 hours
Description: DU145 cells were used for invasion assays. In some experiments, MMSET knockdown was performed by transfecting cells with two different MMSET-specific siRNAs. Forty-eight hours post-transfection, cells were seeded onto the basement membrane matrix (EC matrix, Chemicon, Temecula, Calif.) present in the insert of a 24-well culture plate. In some experiments, MMSET was inhibited using a small molecule inhibitor (MCTP39). Fetal bovine serum was added to the lower chamber as a chemoattractant with or without 2 doses of small molecule inhibitors. After 48 hours, the non-invading cells and EC matrix were gently removed with a cotton swab. Invasive cells located on the lower side of the chamber were measured colorimetrically by treating with 150 μl of 10% acetic acid and the absorbance measured at 560 nm using a spectrophotometer.

[3] = tested on: translocation positive MM cell lines; assay: Specificity in MM cell lines; type: cell-based
[4] = tested on: histone H3 methylation in DU145 cells; assay: Immunoblot analyses of histone H3 methylation modifications; type: cell-based
Description: DU145 cells were incubated with multiple doses of small molecule inhibitors for 96 hours or were subjected to siRNA-mediated MMSET knockdown as described herein (e.g., using sh1 GGUCCAAAGUGUCGGGUUA or sh2 GUCAGUGGAGGAGCGGAA). Cells were homogenized in NP40 lysis buffer (50 mM Tris-HCl, 1% NP40, pH 7.4, Sigma, St. Louis, Mo.) with Complete proteinase inhibitor mixture (Roche, Indianapolis, Ind.). Ten micrograms of each protein extract were boiled in sample buffer, separated by SDS-PAGE, and transferred onto Polyvinylidene Difluoride membrane (GE Healthcare). The membrane was incubated for one hour in blocking buffer and incubated overnight at 4° C. with the following antibodies: anti-mono, di, and trimethylated H3-27, anti-di and trimethylated H3-k36, and anti-trimethylated H3-K9. Following a wash with TBS-T, the blot was incubated with horseradish peroxidase-conjugated secondary antibody. Signals were visualized by enhanced chemiluminescence as described by the manufacturer (GE Healthcare). The blots were re-probed with anti-H3 and β-actin for confirmation of equal loading.

multiple cancers = assay: Cell viability (FIGS. 11-26); type: cell-based

Compound: NNc1nc2ccccc2nc1S [MCTP39, 3-hydrazinylquinoxaline-2-thiol]
- proliferation of DU145 cells (DU145 cells [1]): affected proliferation and invasion of DU145 cells even at very low concentration
- IC50 (DU145 cells [1]; Homo sapiens, DU-145, 96 hours, WST-1): < 3000 nM
- tumor size / tumor volume in xenograft tumors (xenograft tumors): decreased; also recorded: reduces tumor volume
- invasion of DU145 cells (DU145 cells [2]): affected proliferation and invasion of DU145 cells even at very low concentration
- specificity toward translocation positive MM cell lines [3]: shows specificity toward translocation positive MM cell lines
- H3K27 trimethylation [4]: dose-dependent decreased
- H3K36 dimethylation [4]: dose-dependent decreased
- H3K36 trimethylation [4]: dose-dependent decreased
- H3K27 dimethylation ([4]; 96 hours): dose-dependent decreased
- H3K27 trimethylation ([4]; listed as N39): reduced
- H3K36 dimethylation ([4]; listed as N39): reduced
- H3K36 trimethylation ([4]; listed as N39): reduced
- cell viability (multiple cancers): decreased
